We go through 17 compounds from patent publication US20090068642A1, “Composition and pharmacology of novel alpha6-containing nicotinic acetylcholine receptors” (priority 2003, published 2009).

The test system of one test is DA release. Conditions: Bencherif, et al., 1998; cited from earlier work.
In test [1] the target is T1, α6β3β4α5 nAChR (Homo sapiens, UniProt P30926+Q15825).
T1 construct: expressed in transfected cells; host or cells: SH-EP1 human epithelial cells
The test is described as follows: [3H]-epibatidine binding to SH-EP1 α6β3β4α5 cell membranes (saturation and competition). Here is the method: Preparation of Cell Membranes for Receptor Binding. […] Combined homogenate (18 mL) was centrifuged at 40,000×g for 20 min (4° C.). The pellet was resuspended in 12 mL of ice-cold PBS and centrifuged again. The final pellet was resuspended in 10 mL of PBS.
[^3H]-Epibatidine Binding. For the saturation binding assay, 0.1 to 2.0 nM [^3H]-EPI (final concentrations; PerkinElmer Life Sciences, 56.2 Ci/mmol) was used to probe α6-comprising binding sites on the cell membranes. Competition binding assay was performed using 0.5 nM [^3H]-EPI (final concentration).
Each well contained 50 μL of test compound at the desired concentration, 50 μL of 4×[^3H]-EPI stock solution and 100 μL of membrane suspension and was performed in triplicate, at minimum. Samples were incubated for 2 hr at room temperature with gentle agitation. Samples defining total binding included buffer instead of test compound.
For 48-well plates, binding was terminated by immediate filtration onto GF/B filters (presoaked in 0.3% PEI) using a 48-sample, semi-auto harvester (Brandel, Gaithersburg, Md.), followed by washing 3 times with ice-cold buffer. Filters were transferred into scintillation vials filled with 3 mL of cocktail. Radioactivity was measured after 8-12 hr using a liquid scintillation analyzer (model Tri-Carb 2200CA, PerkinElmer Life Sciences Inc., Boston, Mass.). Data were expressed as disintegrations per minute (DPMs) and were converted to an absolute amount (fmoles) of bound [^3H]-EPI per mg of protein, or as a percent of control [^3H]-EPI binding (total—nonspecific).
For 96-well plates, incubation was terminated by dilution with ice-cold PBS and immediate filtration onto GF/B filter plate (presoaked in 0.3% PEI) using a 96-sample, semi-auto harvester (Brandel, Gaithersburg, Md.). After washing 3 times with ˜350 μl of ice-cold buffer, the filter plate was dried for 60 min in an oven at 49° C., bottom-sealed and each well filled with 40 μl of cocktail. […] Data were expressed as counts per minute (CPMs) and were converted to percent of control [^3H]-EPI binding (total—nonspecific).
Pseudo Hill slope (nH) was determined by fitting data to a sigmoidal dose-response equation (variable slope): % binding=Bottom+(Top−Bottom)/[1+10^(logIC50-X)·n], where X is the logarithm of inhibitor concentration and n is the slope.
A Scatchard analysis was also done for illustrative purposes, but not to determine specific binding parameters.

For test [2], the target named is T2, α4β2 nAChR (Rattus norvegicus, UniProt P09483+P12390).
T2 construct: Rat Brain; from tissue
T2 sequence (P12390 25-500): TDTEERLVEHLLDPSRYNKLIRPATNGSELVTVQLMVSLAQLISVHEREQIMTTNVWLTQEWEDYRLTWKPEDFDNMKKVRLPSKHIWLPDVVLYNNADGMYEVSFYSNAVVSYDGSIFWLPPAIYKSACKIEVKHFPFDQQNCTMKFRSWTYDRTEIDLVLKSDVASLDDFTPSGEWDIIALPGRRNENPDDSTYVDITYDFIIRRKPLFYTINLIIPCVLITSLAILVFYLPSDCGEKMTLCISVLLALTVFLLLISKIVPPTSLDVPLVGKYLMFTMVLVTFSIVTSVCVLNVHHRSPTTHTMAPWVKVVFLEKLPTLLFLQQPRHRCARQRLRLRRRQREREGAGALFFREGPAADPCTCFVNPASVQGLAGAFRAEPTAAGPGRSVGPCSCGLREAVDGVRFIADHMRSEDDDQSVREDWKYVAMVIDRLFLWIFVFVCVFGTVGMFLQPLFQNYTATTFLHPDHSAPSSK
T2 sequence (P09483 31-630): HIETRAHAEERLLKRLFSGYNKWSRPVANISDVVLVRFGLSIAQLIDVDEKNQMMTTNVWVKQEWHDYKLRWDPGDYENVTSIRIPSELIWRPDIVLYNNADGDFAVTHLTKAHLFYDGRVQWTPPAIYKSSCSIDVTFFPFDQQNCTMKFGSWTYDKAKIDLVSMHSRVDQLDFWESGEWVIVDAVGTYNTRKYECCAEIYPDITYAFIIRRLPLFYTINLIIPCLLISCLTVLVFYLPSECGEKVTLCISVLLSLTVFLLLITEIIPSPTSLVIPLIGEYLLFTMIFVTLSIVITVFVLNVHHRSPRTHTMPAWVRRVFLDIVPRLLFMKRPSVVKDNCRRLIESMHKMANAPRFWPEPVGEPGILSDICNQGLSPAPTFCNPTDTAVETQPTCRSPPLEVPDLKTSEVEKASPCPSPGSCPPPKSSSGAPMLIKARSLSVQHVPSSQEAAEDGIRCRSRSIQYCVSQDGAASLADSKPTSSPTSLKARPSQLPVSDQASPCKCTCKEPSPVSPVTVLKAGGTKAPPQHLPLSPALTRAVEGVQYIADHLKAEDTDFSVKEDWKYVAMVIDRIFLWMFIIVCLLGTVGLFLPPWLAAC
Put plainly: biochemical. Type of test: binding.

For test [3], the target named is T3, α7 nAChR (Rattus norvegicus, UniProt Q05941).
T3 construct: Rat brain; from tissue
T3 sequence (Q05941 23-502): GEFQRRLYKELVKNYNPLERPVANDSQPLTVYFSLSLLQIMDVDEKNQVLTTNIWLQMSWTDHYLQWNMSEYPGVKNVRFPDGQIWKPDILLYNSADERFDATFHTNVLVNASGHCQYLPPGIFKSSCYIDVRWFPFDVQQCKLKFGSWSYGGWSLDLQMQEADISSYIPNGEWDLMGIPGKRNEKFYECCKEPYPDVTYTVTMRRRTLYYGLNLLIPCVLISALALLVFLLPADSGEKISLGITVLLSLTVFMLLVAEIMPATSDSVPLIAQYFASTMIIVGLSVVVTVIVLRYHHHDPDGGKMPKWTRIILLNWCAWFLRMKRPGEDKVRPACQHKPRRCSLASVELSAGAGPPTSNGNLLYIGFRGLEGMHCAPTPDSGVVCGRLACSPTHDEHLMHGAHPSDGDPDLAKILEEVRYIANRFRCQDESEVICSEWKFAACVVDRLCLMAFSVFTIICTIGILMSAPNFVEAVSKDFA
The test is described as follows: biochemical. Conditions: read-out: Ki α7 [3H]-MLA Binding.

Test [4] has as its target α6α4β2β3 nAChR (Homo sapiens, UniProt P17787+P43681+Q15825, P452S). Put plainly: 86Rb+ efflux assay, SH-EP1 α6α4β2β3 cells compared with α4β2 cells. In kind it is cell-based.
Method: (§1) ^86Rb^+-flux Assay. […] After cells had adhered (generally overnight, but no sooner than 4 hr later), medium was removed and replaced with 250 μl per well of complete medium supplemented with ˜300,000 cpm of ^86Rb^+ (NEN; counted at 40% efficiency using Cerenkov counting and the Packard TriCarb 1900 Liquid Scintillation Analyzer).
(§2) Briefly, after aspiration of the bulk of ^86Rb^+ loading medium from each well of the “cell plate,” each well containing cells was rinsed three times with 2 ml of fresh ^86 Rb^+ efflux buffer (130 mM NaCl, 5.4 mM KCl, 2 mM CaCl2, 5 mM glucose, 50 mM HEPES, pH 7.4) to remove extracellular ^86Rb^+. Following removal of residual rinse buffer by aspiration, the flip-plate technique was used again to simultaneously introduce fresh efflux buffer containing drugs of choice at indicated final concentrations from a 24-well “efflux/drug plate” into the wells of the cell plate. […]
(§3) Intrinsic agonist activity of test drugs was ascertained in samples containing that drug only at different concentrations and was normalized, after subtraction of non-specific efflux, to specific efflux assessed using carbamylcholine and efflux-buffer-only controls. Antagonist activity was determined for test drugs at different concentrations in the presence of 1 mM carbamylcholine and was normalized, after subtraction of non-specific efflux, to specific efflux ascertained using carbamylcholine and efflux buffer-only controls. ^86Rb^+ in both cell plates and efflux/drug plates was periodically determined to ensure material balance (i.e., that the sum of ^86Rb^+ released into the efflux/drug plate and ^86Rb^+ remaining in the cell plate were the same for each well) and to determine efficiency of ^86Rb^+ loading (the percentage of applied ^86Rb^+ actually loaded into cells).
(§4) In some cases, biphasic dose-ion flux response curves were evident and were fit to a two-phase Hill equation from which EC50 and Hill coefficients for the rising, agonist phase, and IC50 and Hill coefficients for the falling, self-inhibitory phase could be determined (Prism).
Test [5] deals with T1, α6β3β4α5 nAChR. Put plainly: 86Rb+ efflux assay, SH-EP1 α6β3β4α5 cells. In kind it is cell-based. The settings on record: SH-EP1 cells expressing α6β3β4α5-nAChR, FIG. 2. Here is the method: ^86Rb^+-flux Assay. Cells were harvested at confluence from 100-mm plates by mild trypsinization (Irvine Scientific, Santa Ana, Calif.) before being resuspended in complete medium and evenly seeded at a density of one confluent 100-mm plate per 24-well plate (Falcon; ˜100-125 μg of total cell protein per well in a 500 μl volume). After cells had adhered (generally overnight, but no sooner than 4 hr later), medium was removed and replaced with 250 μl per well of complete medium supplemented with ˜300,000 cpm of ^86Rb^+ (NEN; counted at 40% efficiency using Cerenkov counting and the Packard TriCarb 1900 Liquid Scintillation Analyzer).
After at least 4 hr and typically overnight, ^86Rb^+ efflux was measured using the “flip-plate” technique (Lukas et al., 2002). […]
For each experiment, normalization and quality control measurements were made of total ^86Rb^+ efflux in samples containing a fully efficacious dose of 1 mM carbamylcholine and of non-specific ^86Rb^+ efflux measured using either samples containing 1 mM carbamylcholine plus 100 μM mecamylamine, which gave full block of agonist-induced or spontaneous, nAChR-mediated ion flux, or samples containing efflux buffer alone to assess any contributions due to spontaneous nAChR-mediated ion flux. […] Specific ^86Rb^+ efflux was determined in absolute terms and as a percentage of loaded ^86Rb^+. […]

Test [6] addresses T2, α4β2 nAChR. Conditions: Table 1; from Briggs et al, 1997; read-out: Ki α4β2 [3H]-NIC Binding; cited from earlier work.
In test [7] the target is T3, α7 nAChR. The settings on record: Table 1; from Briggs et al, 1997; read-out: Ki α7 [3H]-MLA Binding; cited from earlier work.
Test [8] addresses α6α4β2β3 nAChR (Homo sapiens, UniProt P17787+P43681+Q15825). The test is described as follows: 86Rb+ efflux assay, SH-EP1 α6α4β2β3 cells compared with α4β2 cells. Type of test: cell-based.
Method: as §1, §2, §3, §4
Setting [9] is: SH-EP1 α6β3β4α5 membranes, read-out: Ki in competition with [3H]-EPI (rank order of potency).
Where [10] appears, read: Ki in competition with [3H]-EPI (rank order of potency).
[11] abbreviates: read-out: Ki α6β3β4α5 [3H]-EPI Binding.
Setting [12] is: read-out: Ki α4β2 [3H]-NIC Binding.
[13] abbreviates: SH-EP1 cells, Table 1, read-out: Ki α6β3β4α5 [3H]-EPI Binding.

“And” between values parts separate entries of the source, which are not always exact repeats. Equal values may be shown once. “Also recorded” adds a separate entry of the source. Read-outs that look alike come from different tables or passages of the source.

T1 sequence (Q15825 26-494): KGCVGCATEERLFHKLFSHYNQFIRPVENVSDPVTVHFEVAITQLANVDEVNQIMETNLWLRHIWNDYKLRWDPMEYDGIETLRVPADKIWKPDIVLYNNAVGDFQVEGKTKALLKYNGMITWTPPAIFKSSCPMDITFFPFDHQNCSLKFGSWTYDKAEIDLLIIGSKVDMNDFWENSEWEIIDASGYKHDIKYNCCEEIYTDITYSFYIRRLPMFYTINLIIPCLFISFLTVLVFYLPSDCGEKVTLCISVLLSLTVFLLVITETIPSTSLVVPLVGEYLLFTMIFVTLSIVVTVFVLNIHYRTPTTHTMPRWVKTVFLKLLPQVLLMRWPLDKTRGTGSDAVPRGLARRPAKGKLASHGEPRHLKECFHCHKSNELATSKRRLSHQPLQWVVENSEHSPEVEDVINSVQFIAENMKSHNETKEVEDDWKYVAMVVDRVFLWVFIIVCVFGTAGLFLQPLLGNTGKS
T1 sequence (Q05901 25-458 partner limits assumed): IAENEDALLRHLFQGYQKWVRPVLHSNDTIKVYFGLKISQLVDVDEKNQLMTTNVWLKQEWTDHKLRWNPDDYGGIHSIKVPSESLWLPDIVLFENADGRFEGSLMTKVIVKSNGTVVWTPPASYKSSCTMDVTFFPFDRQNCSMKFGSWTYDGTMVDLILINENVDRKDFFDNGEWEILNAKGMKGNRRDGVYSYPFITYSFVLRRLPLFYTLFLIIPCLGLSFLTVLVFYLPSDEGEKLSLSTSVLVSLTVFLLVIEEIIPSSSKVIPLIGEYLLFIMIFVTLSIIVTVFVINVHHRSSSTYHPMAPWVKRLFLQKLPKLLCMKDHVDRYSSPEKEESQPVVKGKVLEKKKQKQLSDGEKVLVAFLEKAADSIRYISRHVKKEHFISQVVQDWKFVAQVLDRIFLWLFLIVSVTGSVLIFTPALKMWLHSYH
T1 sequence (P30926 22-498): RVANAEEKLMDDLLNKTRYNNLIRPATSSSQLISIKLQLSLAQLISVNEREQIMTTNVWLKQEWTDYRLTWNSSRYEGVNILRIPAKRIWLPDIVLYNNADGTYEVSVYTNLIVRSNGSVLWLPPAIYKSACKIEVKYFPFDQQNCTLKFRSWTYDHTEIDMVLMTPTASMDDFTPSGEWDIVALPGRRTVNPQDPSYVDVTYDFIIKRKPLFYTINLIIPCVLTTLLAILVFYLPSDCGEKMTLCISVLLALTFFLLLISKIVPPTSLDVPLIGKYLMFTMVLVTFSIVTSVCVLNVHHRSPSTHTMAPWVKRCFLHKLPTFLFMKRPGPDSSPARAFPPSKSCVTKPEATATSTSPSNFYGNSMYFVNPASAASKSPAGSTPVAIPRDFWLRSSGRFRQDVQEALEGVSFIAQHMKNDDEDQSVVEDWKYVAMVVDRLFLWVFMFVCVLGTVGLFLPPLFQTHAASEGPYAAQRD
T1 sequence (P30532 23-468 partner): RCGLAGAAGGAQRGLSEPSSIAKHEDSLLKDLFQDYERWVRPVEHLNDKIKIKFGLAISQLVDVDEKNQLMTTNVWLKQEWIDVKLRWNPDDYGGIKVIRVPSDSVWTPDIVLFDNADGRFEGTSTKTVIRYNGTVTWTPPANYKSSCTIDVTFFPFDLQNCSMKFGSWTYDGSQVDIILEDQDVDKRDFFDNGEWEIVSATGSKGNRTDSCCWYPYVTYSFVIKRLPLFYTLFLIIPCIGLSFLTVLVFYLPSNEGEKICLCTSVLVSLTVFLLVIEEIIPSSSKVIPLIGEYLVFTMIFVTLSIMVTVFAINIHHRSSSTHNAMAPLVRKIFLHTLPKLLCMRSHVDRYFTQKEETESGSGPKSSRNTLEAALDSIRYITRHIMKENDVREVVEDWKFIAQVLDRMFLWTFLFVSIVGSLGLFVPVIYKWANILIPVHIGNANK
α6α4β2β3 nAChR (Homo sapiens, UniProt P17787+P43681+Q15825, P452S), sequence (P43681 27-627 P452S): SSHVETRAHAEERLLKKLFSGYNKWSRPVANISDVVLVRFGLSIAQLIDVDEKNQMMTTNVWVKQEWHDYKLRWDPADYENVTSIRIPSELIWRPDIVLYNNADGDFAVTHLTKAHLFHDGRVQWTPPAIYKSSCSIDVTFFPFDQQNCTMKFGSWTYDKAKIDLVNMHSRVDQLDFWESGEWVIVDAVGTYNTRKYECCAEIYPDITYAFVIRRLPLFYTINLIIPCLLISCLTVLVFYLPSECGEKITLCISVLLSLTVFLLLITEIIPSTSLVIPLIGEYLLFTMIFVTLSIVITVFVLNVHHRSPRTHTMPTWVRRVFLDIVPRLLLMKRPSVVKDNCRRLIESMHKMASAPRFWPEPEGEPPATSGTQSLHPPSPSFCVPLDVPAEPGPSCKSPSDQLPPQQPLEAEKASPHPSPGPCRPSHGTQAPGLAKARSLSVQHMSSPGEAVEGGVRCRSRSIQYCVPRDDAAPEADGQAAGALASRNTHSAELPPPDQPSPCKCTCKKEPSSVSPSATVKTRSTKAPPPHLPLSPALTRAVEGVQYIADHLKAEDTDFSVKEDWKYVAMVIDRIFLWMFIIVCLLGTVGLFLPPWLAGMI
α6α4β2β3 nAChR (Homo sapiens, UniProt P17787+P43681+Q15825, P452S), sequence (Q15825 26-494): as the sequence (Q15825 26-494) above
α6α4β2β3 nAChR (Homo sapiens, UniProt P17787+P43681+Q15825, P452S), sequence (P17787 26-502): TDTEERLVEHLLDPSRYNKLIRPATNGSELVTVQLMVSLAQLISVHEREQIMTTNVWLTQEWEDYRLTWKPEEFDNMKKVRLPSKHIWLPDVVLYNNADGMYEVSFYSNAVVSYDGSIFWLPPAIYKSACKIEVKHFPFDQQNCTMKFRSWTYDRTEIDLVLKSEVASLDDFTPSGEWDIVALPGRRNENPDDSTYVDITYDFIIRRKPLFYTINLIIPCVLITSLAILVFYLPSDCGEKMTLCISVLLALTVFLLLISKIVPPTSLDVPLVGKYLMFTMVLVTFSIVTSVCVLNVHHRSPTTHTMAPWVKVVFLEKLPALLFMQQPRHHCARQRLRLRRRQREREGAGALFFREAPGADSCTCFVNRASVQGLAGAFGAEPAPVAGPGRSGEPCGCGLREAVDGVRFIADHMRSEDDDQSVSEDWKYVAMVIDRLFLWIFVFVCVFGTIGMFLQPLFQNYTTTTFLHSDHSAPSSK
α6α4β2β3 nAChR (Homo sapiens, UniProt P17787+P43681+Q15825, P452S), sequence (Q05901 22-458, further chain): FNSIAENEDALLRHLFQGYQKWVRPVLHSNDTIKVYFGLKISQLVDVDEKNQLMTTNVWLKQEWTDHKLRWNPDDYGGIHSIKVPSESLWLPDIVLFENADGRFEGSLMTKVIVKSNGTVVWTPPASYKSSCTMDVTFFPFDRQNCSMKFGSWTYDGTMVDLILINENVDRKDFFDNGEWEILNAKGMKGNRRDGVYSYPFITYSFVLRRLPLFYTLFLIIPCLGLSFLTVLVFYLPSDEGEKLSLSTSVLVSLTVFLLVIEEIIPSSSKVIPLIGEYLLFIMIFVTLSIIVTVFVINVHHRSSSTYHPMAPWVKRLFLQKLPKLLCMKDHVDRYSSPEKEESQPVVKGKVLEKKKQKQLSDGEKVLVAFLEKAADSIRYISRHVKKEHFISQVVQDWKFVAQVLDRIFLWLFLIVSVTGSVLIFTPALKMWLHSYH

In the case of `c1cncc(C2CC3CCN2CC3)c1` (racemic) [TC-2429, (+/−)-2-(−3-pyridinyl)-1-azabicyclo[2.2.2]octane], the DA release entry in the test on DA release is “robust DA release”. In addition, the Ki on α6β3β4α5 nAChR [1] (setting [9]) was 2 nM.
As to `CN1CCCC1c1cccnc1` (single isomer, unassigned; (-)) [(-)-NIC, nicotine], the Ki at α6β3β4α5 nAChR [1] (setting [10]) is 150 to 165 nM and 110 to 160 nM; at α6β3β4α5 nAChR [1] (Ki α6β3β4α5 [3H]-EPI Binding), 160 nM.
`O=c1cccc2n1C[C@@H]1CNC[C@H]2C1` [(-)-CYT, cytisine]: the values for the Ki at α6β3β4α5 nAChR [1] (setting [11]), at α4β2 nAChR [2] (setting [12]) and at α7 nAChR [3] were 150 nM, 1 nM and 1160 nM, respectively. Further, on α6α4β2β3 nAChR [4], the “Agonist efficacy/potency at α6α4β2β3 nAChR relative to α4β2-nAChR” value is “higher efficacy and agonist potency; also recorded: much greater efficacy”.
For the compound `CN1[C@@H](CC(=O)c2ccccc2)CCC[C@H]1C[C@H](O)c1ccccc1` [(-)-LOB, lobeline], the Ki on α6β3β4α5 nAChR [1] (setting [13]) is 7 nM; on α6β3β4α5 nAChR [1] (setting [9]), 7 to 9 nM and 6 nM.
For the compound `c1cncc(OC[C@@H]2CCN2)c1` [A-85380, 3-[2(S)-azetidinylmethoxy]pyridine], the Ki at α6β3β4α5 nAChR [1] (setting [10]) is 7 to 9 nM and 6 nM; at α6β3β4α5 nAChR [1] (setting [13]) it was 9 nM; on α4β2 nAChR [2], 3 nM; on α7 nAChR [3] (Rat brain, Table 1) it was 1200 nM.
In the case of `Cc1cc([C@@H]2CCCN2C)on1` [ABT-418, (S)-3-methyl-5-(1-methyl-2-pyrrolidinyl)isoxazole], the Ki at α6β3β4α5 nAChR [1] (setting [10]) is 900 to 3500 nM and 500 to 2000 nM; on α6β3β4α5 nAChR [1] (setting [13]), 850 nM; at α4β2 nAChR [2] (Rat brain, Table 1, read-out: Ki α4β2 [3H]-NIC Binding), 39 nM.
Turning to `C[N+](C)(C)CCOC(N)=O` [CAR, carbachol], on α6β3β4α5 nAChR [5], the “86Rb+ efflux response (agonist)” value is “activate ^86Rb^+ efflux responses”. The Ki was 3500 nM on α6β3β4α5 nAChR [1] (setting [13]); 900 to 3500 nM and 500 to 2000 nM on α6β3β4α5 nAChR [1] (setting [9]).
In the case of `CO[C@H]1CC=C2CCN3CCC4=C(CC(=O)OC4)[C@]23C1` [DHβE, dihydro-β-erythoidine], the Ki at α6β3β4α5 nAChR [1] (setting [11]) is more than 10000 nM; at α4β2 nAChR [2] (setting [12]), 26.4 nM; on α7 nAChR [3], 5000 nM.
Take `Clc1ccc(C2CC3CCC2N3)cn1` (stereo not drawn) [EPI, epibatidine]: the Ki at α6β3β4α5 nAChR [1] (Ki α6β3β4α5 [3H]-EPI Binding) was 0.07 nM.
Take `COc1ccc(/C=C2\CCCN=C2c2cccnc2)c(OC)c1` [GTS-21, (2.4)-dimethoxybenzylidene anabaseine]: the Ki at α6β3β4α5 nAChR [1] (setting [10]) was 900 to 3500 nM and 500 to 2000 nM; on α6β3β4α5 nAChR [1] (setting [13]), 1400 nM; at α4β2 nAChR [6], 20 nM; on α7 nAChR [7], 2000 nM.
Regarding `CNC(=O)OCC[N+](C)(C)C` [MCC, methylcarbamylcholine], the Ki at α6β3β4α5 nAChR [1] (setting [13]) came to 970 nM.
For the compound `CCN1C[C@]2(COC(=O)c3ccccc3N3C(=O)C[C@H](C)C3=O)CC[C@H](OC)[C@@]34[C@@H]5C[C@H]6[C@H](OC)[C@@H]5[C@](O)(C[C@@H]6OC)[C@@](O)([C@@H](OC)[C@H]23)[C@@H]14` [MLA, methyllycaconitine], the inhibitory constant (Ki) on α6β3β4α5 nAChR [1] (setting [13]) was 160 nM; on α6β3β4α5 nAChR [1] (setting [9]) it was 150 to 165 nM and 110 to 160 nM.
As for `CCN1C[C@]2(COC(=O)c3ccccc3N3C(=O)C[C@H](C)C3=O)CC[C@H](OC)[C@]34C5C[C@@H]6[C@@H](OC)C[C@@](O)(C5[C@H]6OC(C)=O)[C@](O)(C13)[C@@H](OC)C24` (stereo partly drawn) [NUD, nudikauline], the Ki at α6β3β4α5 nAChR [1] (setting [13]) is 370 nM.
Regarding `C#Cc1cncc([C@@H]2CCCN2C)c1` [SIB-1508Y, altinicline], the Ki at α6β3β4α5 nAChR [1] (setting [10]) is 900 to 3500 nM and 500 to 2000 nM; at α6β3β4α5 nAChR [1] (setting [13]), 950 nM; on α4β2 nAChR [2], 200 nM.
`CNC1(C)C2CCC(C2)C1(C)C` (stereo not drawn) [mecamylamine]: the Ki on α6β3β4α5 nAChR [1] (read-out: Ki in competition with [3H]-EPI (rank order of potency)) was more than 10000 nM.
As to `CC(=O)O[C@H]1C[C@@H]2CC[C@@H]3[C@H](CC[C@@]4(C)[C@H]3C[C@H]([N+]3(C)CCCCC3)[C@@H]4OC(C)=O)[C@@]2(C)C[C@@H]1[N+]1(C)CCCCC1` [pancuronium], the “Sensitivity of α6α4β2β3-nAChR to functional blockade relative to α4β2-nAChR” value on α6α4β2β3 nAChR [8] is “lower sensitivity”.
On to α-bungarotoxin [α-Btx], for which the Ki on α6β3β4α5 nAChR [1] (setting [11]) and on α4β2 nAChR [2] (setting [12]) was more than 10000 nM each time.

Broadly, the Ki is the dissociation constant of the complex between target and ligand, obtained from inhibition or displacement.
